The results in this text go back to patent US20200262813A1, “1,5,7-TRISUBSTITUTED ISOQUINOLINE DERIVATIVES, PREPARATION THEREOF, AND USE THEREOF IN MEDICINES” (SHANGHAI HAIYAN PHARMACEUTICAL TECHNOLOGY CO., LTD., priority 2016, published 2020).

For one assay, the system named is Pfeiffer cells. Description: Cell proliferation test (cell counting kit-8, 6 days). It counts as cell-based. The conditions noted are these: 6 days' growth. The procedure: Cells were harvested by centrifuge and densities were determined using a CounterStar cell counter. Appropriate number of cells were plated in a 96-well culture plate and incubated overnight. Compounds to be tested were 1:3 diluted for 8 gradient points and added into corresponding wells. After 6 days' growth, cell counting kit-8 (Dojindo) was used to detect cell viability and absorbance values were read on Tecan infinite pro.
On the technique in general: Tetrazolium assays rely on reduction of a dye to a coloured formazan, in cell work by metabolically active cells.

Assay [1] deals with Recombinant PRC2 (EZH2-Y641F) (Homo sapiens, UniProt Q15910, Y641F). Description: In vitro methyltransferase activity test (LANCE Ultra).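 Also: compounds tested as an 8-point threefold dilution series, fluorescence read after 1 h detection step at room temperature, IC50 derived from a four-parameter curve fit.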 To be noted: LANCE Ultra detection, 3 hours reaction. (In general: TR-FRET usually uses a lanthanide donor and a delayed reading to cut background.)
Experimental: In Vitro Methyltransferase Activity Test
Recombinant PRC2 (EZH2-Y641F) was purchased from Active motif, S-adenosyl-methionine (SAM) and Poly-L-lysine (PLL) were purchased from Sigma-Aldrich, H3(1-50)K27mel polypeptide was purchased from Cisbio. LANCEUltra system (Perkinelmer) was used for detection. In the enzyme activity test, a compound to be tested was 1:3 diluted for 8 gradient points, added into a reaction plate, and then added 100 ng recombinant enzyme. And then a buffer [20 mM Tris pH8.5, 2 mM MgCl2, 0.01% Tween-20, 1 mM TCEP] containing 2.5 M SAM/250 nM H3(1-50)K27mel premixture was added to conduct an enzyme reaction at room tempreture. After reacted for 3 hours, a dection solution containing premixed PLL, detection antibody and Ulight was added, reacted for 1 h at RT, then fluorescence was read on Tecan infinite pro. IC50s were calculated by four-factor model fitting in a XLfit software.
The mark [2] stands for this setting: EZH2 Y641F IC50, Recombinant PRC2 (EZH2-Y641F).
Where [3] appears, read: read-out: EZH2 Y641F IC50, Recombinant PRC2 (EZH2-Y641F).

Read-outs that look alike come from different tables or passages of the source.

Chain of Recombinant PRC2 (EZH2-Y641F) (Q15910 whole entry Y641F): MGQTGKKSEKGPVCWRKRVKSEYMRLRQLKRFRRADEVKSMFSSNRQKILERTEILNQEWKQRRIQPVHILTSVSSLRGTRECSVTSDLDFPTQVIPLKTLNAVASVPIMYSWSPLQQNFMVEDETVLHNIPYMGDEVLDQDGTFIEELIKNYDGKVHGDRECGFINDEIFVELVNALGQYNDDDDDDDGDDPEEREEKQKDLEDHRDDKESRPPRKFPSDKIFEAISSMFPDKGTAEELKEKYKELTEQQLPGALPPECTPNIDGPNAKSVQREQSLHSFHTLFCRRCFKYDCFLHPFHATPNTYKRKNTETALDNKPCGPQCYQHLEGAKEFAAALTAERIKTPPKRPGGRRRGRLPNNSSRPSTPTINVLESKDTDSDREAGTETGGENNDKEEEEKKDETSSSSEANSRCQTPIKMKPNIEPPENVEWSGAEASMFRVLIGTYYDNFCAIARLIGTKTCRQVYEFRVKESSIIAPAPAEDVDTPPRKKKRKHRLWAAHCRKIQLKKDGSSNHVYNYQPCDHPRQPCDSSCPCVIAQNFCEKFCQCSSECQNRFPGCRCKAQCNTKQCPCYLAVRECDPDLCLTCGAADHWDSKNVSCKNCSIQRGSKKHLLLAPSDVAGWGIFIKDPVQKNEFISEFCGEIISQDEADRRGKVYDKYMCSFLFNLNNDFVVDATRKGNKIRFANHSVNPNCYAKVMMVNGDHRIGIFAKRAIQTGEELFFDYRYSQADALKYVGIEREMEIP
Chain of Recombinant PRC2 (EZH2-Y641F) (O75530 whole entry partner): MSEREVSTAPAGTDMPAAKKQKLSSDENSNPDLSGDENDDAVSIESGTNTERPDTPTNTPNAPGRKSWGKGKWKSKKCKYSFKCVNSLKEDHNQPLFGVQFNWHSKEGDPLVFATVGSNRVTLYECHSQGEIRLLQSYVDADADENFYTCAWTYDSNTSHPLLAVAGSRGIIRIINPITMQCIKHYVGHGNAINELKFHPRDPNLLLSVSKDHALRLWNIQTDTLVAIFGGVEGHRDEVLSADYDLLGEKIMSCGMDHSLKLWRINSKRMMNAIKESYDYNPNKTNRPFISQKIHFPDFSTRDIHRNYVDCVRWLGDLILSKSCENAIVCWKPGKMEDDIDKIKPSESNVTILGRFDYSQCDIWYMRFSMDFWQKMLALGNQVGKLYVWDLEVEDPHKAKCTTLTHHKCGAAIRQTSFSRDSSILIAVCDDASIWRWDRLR
Chain of Recombinant PRC2 (EZH2-Y641F) (Q15022 whole entry partner): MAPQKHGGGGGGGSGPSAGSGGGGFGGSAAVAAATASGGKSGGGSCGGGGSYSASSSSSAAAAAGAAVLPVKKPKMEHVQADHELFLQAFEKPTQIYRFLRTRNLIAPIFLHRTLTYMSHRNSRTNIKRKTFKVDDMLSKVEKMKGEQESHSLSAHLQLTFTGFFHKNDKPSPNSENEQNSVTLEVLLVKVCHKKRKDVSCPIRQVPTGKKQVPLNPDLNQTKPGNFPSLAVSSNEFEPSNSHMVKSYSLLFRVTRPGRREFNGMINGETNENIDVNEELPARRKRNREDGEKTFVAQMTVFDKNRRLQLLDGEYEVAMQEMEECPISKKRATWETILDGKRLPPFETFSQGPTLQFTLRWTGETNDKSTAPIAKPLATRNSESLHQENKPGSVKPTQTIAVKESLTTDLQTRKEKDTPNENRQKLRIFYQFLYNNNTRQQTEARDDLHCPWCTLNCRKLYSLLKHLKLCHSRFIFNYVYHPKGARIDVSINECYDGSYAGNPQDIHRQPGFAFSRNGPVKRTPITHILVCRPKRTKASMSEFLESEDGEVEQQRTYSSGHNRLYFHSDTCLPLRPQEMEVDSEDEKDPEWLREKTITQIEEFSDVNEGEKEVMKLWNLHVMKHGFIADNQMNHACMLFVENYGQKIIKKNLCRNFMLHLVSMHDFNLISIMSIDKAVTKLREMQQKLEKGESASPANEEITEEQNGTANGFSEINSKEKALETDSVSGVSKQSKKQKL
Chain of Recombinant PRC2 (EZH2-Y641F) (Q09028 whole entry partner): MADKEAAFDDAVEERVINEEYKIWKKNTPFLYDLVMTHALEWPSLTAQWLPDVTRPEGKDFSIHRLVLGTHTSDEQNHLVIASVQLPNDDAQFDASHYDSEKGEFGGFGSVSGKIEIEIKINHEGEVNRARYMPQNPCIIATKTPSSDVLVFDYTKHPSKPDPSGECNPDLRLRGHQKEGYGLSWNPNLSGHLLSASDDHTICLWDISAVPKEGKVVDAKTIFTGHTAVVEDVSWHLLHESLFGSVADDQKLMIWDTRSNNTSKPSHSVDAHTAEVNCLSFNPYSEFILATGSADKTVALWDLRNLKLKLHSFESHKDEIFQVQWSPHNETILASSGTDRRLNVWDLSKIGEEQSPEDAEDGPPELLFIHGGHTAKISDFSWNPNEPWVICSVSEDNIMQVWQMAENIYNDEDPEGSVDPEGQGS
Chain of Recombinant PRC2 (EZH2-Y641F) (Q6ZN18 whole entry partner): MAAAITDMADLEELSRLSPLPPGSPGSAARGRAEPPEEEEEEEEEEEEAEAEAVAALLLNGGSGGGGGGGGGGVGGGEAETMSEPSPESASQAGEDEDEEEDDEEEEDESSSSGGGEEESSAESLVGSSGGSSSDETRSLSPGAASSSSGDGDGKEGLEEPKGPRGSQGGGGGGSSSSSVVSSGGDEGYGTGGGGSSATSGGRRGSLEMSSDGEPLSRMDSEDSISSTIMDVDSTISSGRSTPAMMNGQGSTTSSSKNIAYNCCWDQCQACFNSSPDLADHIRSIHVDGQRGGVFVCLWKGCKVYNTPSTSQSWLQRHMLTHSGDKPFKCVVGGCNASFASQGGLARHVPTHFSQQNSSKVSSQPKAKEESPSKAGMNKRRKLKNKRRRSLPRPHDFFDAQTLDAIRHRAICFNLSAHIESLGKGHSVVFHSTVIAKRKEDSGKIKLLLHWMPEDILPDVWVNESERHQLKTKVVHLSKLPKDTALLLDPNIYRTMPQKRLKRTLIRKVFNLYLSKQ

Usually IC50 stands for the concentration needed to halve the response being measured. On to `CCN(c1c(F)c(-c2ccc(N3CCN(C)CC3)nc2)cc2c(NCc3c(C)cc(C)[nH]c3=O)nccc12)C1CCC(N(C)C)CC1` (centres unmarked) [Compound Z-218, 3-((5-((4-(dimethylamino)cyclohexyl) (ethyl)amino)-6-fluoro-7-(6-(4-methylpiperazin-1-yl)pyridin-3-yl)isoquinolin-1-ylamino)methyl)-4,6-dimethyl-2(1H)-one], for which the IC50 with Pfeiffer cells (Homo sapiens, Pfeiffer, 144 h) came to 212 nM; in assay [1] (setting [2]) it was 28 nM. In the same order, the values of `CCN(c1cc(N(C)c2cccnc2)cc2c(NCc3c(C)cc(C)[nH]c3=O)nccc12)[C@H]1CC[C@H](N(C)C)CC1` [Compound Z-183] are 395 nM and 128 nM. As to `CCN(c1cc(C#CCN2CCOCC2)cc2c(NCc3c(C)cc(C)[nH]c3=O)nccc12)C1CCC(N(C)C)CC1` (centres unmarked) [Compound Z-177], the IC50 with Pfeiffer cells (Homo sapiens, Pfeiffer, 144 h) was found to be 444 nM; in assay [1] (setting [2]) it was 31 nM. Consider `CCN(c1cc(Cl)cc2c(NCc3c(C)cc(C)[nH]c3=O)nccc12)C1CCC(N(C)C)CC1` (centres unmarked) [Compound Z-132], for which the IC50 stood at 301 nM with Pfeiffer cells and 107 nM in assay [1] (setting [3]). `CCN(c1cc(-c2ccc(N3CCN(C)CC3)nc2)cc2c(NCc3c(OC)cc(C)[nH]c3=O)nccc12)C1CCC(N(C)C)CC1` (centres unmarked) [Compound Z-193]: the IC50 in the assay on Pfeiffer cells (Homo sapiens, Pfeiffer, 144 h) is 620 nM; in assay [1] (setting [2]), 21 nM. In the same order, the values of `CCN(c1cc(-c2ccc(N3CCOCC3)nc2)cc2c(NCc3c(C)cc(C)[nH]c3=O)nccc12)C1CCC(N(C)C)CC1` (centres unmarked) [Compound Z-39] are 507 nM and 16 nM. In the assay on Pfeiffer cells, `CCN(c1cc(-c2ccc(N3CCOCC3)nc2)cc2c(NCc3c(C)cc(C)[nH]c3=O)nccc12)C1CCC(O)CC1` (centres unmarked) [Compound Z-70] had an IC50 of 516 nM. Take `CCN(CCN(C)C)c1cc(-c2ccc(N3CCN(C)CC3)nc2)cc2c(NCc3c(C)cc(C)[nH]c3=O)nccc12` [Compound Z-97]: the IC50 in the assay on Pfeiffer cells (Homo sapiens, Pfeiffer, 144 h) was determined as 326 nM; in assay [1] (setting [2]) it was 283 nM. In the same order, the values of `CCN(c1cc(-c2cnc(CN3CCOCC3)c(F)c2)cc2c(NCc3c(C)cc(C)[nH]c3=O)nccc12)C1CCOCC1` [Compound Z-122] are 833 nM and 439 nM. On to `CCN(c1cc(-c2ccc(CN3CCN(C)C(=O)C3)nc2)cc2c(NCc3c(C)cc(C)[nH]c3=O)nccc12)C1CCOCC1` [Compound Z-114], for which the IC50 in the assay on Pfeiffer cells (Homo sapiens, Pfeiffer, 144 h) amounted to 788 nM; in assay [1] (setting [2]), 84 nM.

Take `CCN(c1cc(-c2ccc(C3CC3)nc2)cc2c(NCc3c(C)cc(C)[nH]c3=O)nccc12)C1CCC(N(C)C)CC1` (centres unmarked) [Compound Z-93]: the IC50 was 279 nM in the assay on Pfeiffer cells (Homo sapiens, Pfeiffer, 144 h) and 74 nM in assay [1] (setting [2]).

Turning to `CCN(c1cc(-c2ccccn2)cc2c(NCc3c(C)cc(C)[nH]c3=O)nccc12)C1CCN(C(C)C)CC1` [Compound Z-126], the IC50 in the assay on Pfeiffer cells (Homo sapiens, Pfeiffer, 144 h) came to 765 nM; in assay [1] (setting [2]) it was 156 nM.

As for `CCN(c1cc(Cl)cc2c(NCc3c(C)cc(C)[nH]c3=O)nccc12)C1CCNCC1` [Compound Z-201], the half-inhibitory concentration (IC50) in the assay on Pfeiffer cells (Homo sapiens, Pfeiffer, 144 h) was found to be 133 nM; in assay [1] (setting [2]), 59 nM. `CCN(c1cc(-c2cnc(N3CCOCC3)nc2)cc2c(NCc3c(C)cc(C)[nH]c3=O)nccc12)C1CCN(C2CC2)CC1` [Compound Z-92] returned an IC50 in the assay with Pfeiffer cells of 688 nM. Still for that read-out and setting: with `CCN(c1cc(-c2ccc(CN3CCN(C)CC3)nc2)cc2c(NCc3c(C)cc(C)[nH]c3=O)nccc12)[C@H]1CC[C@@H](N(C)C)CC1` [Compound Z-58] the figure was 359 nM. As to `CCN(c1cc(-c2ccc(N3CCN(C)CC3)nc2)cc2c(NCc3c(C)cc(C)[nH]c3=O)nccc12)C1CCC(NC(C)=O)CC1` (centres unmarked) [Compound Z-225, N-(4-((1-((4,6-dimethyl-2-oxo-1,2-dihydropyridin-3-yl)methylamino)-7-(6-(4-methylpiperazin-1-yl)pyridin-3-yl)isoquinolin-5-yl) (ethyl)amino)cyclohexyl) acetamide], the IC50 in assay [1] (setting [2]) was determined as 68 nM. Same read-out and setting: with `CCN(c1cc(Cl)cc2c(NCc3c(C)cc(C)[nH]c3=O)nccc12)C1CCN(C(C)=O)CC1` [Compound Z-144] the figure was 152 nM; with `CCN(c1cc(C2CCN(C)CC2)cc2c(NCc3c(C)cc(C)[nH]c3=O)nccc12)C1CCC(O)CC1` (centres unmarked) [Compound Z-212], 185 nM.

Consider `CCN(c1cc(C(=O)N2CCOCC2)cc2c(NCc3c(C)cc(C)[nH]c3=O)nccc12)C1CCOCC1` [Compound Z-167], for which, in assay [1] (setting [2]), the IC50 is 453 nM. The same measure, in the same setting: with `CCN(c1cc(-c2ccc(CN3CCOCC3)cc2)cc2c(NCc3c(C)cc(C)[nH]c3=O)nccc12)C1CCOCC1` [Compound Z-1] the figure was 422 nM; with `CCN(c1cc(-c2ccc(N3CCN(C)CC3)nc2)cc2c(NCc3c(OC)cc(C)[nH]c3=O)nccc12)C1CCN(C(C)C)CC1` [Compound Z-191], 206 nM. The same measure, in the same setting: with `CCN(c1cc(C(F)(F)F)cc2c(NCc3c(C)cc(C)[nH]c3=O)nccc12)C1CCOCC1` [Compound Z-16, 3-((5-(ethyl (tetrahydro-2H-pyran-4-yl)amino)-7-(trifluoromethyl)isoquinolin-1-ylamino)methyl)-4,6-dimethyl-2(1H)-one] the figure was 428 nM; with `CCc1cc(C)[nH]c(=O)c1CNc1nccc2c(N(CC)C3CCC(N(C)C)CC3)cc(Cl)cc12` (centres unmarked) [Compound Z-204], 24 nM.

With `CCN(c1cc(C(=O)NC)cc2c(NCc3c(C)cc(C)[nH]c3=O)nccc12)[C@H]1CC[C@H](N(C)C)CC1` [Compound Z-166], the IC50 in assay [1] (setting [2]) came out at 15 nM. As for `CCN(c1cc(C(N)=O)cc2c(NCc3c(C)cc(C)[nH]c3=O)nccc12)[C@H]1CC[C@H](N(C)C)CC1` [Compound Z-227, 1-((4,6-dimethyl-2-oxo-1,2-dihydropyridin-3-yl)methylamino)-5-(((1R,4R)-4-(dimethylamino)cyclohexyl) (ethyl)amino) isoquinoline-7-carboxamide], in assay [1] (setting [2]), the IC50 came out at 64 nM. On the same count and under the same terms, with `CCN(c1cc(C(=O)NC)cc2c(NCc3c(C)cc(C)[nH]c3=O)nccc12)C1CCOCC1` [Compound Z-161] the figure was 331 nM; with `CCN(c1cc(Cl)cc2c(NCc3c(C)cc(C)nc3O)nccc12)[C@H]1CC[C@H](N2CC(OC)C2)CC1` [Compound Z-149], 159 nM. On the same count and under the same terms, with `CCN(c1cc(C2=CCN(C)CC2)cc2c(NCc3c(C)cc(C)[nH]c3=O)nccc12)C1CCC(N(C)C)CC1` (centres unmarked) [Compound Z-61] the figure was 12 nM; with `CCN(c1cc(-c2cnc(N3CCNCC3)nc2)cc2c(NCc3c(C)cc(C)[nH]c3=O)nccc12)[C@H]1CC[C@H](N(C)C)CC1` [Compound Z-160], 6 nM. Turning to `C=C(C)c1cc(N(CC)C2CCC(N(C)C)CC2)c2ccnc(NCc3c(C)cc(C)[nH]c3=O)c2c1` (centres unmarked) [Compound Z-109], in assay [1] (setting [2]), the IC50 came out at 182 nM.

Consider `CCN(c1cc(C(=O)Nc2cccnc2)cc2c(NCc3c(C)cc(C)[nH]c3=O)nccc12)C1CCOCC1` [Compound Z-162], for which, in assay [1] (setting [2]), the IC50 came to 253 nM.

On to `CCN(c1cc(-c2ccc(N3CCNCC3)nc2)cc2c(NCc3c(C)cc(C)[nH]c3=O)nccc12)C1CCC(O)CC1` (centres unmarked) [Compound Z-159], for which the IC50 in assay [1] (setting [2]) turned out to be 21 nM. With `CCN(c1cc(Oc2cccnc2)cc2c(NCc3c(C)cc(C)[nH]c3=O)nccc12)[C@H]1CC[C@H](N(C)C)CC1` [Compound Z-188], the IC50 in assay [1] (setting [3]) turned out to be 112 nM. With `CCN(c1cc(-c2cn[nH]c2)cc2c(NCc3c(C)cc(C)[nH]c3=O)nccc12)C1CCC(N(C)C)CC1` (centres unmarked) [Compound Z-155], the IC50 in assay [1] (setting [2]) is 159 nM. Still for that read-out and setting: with `CCN(c1cc(-c2ccc(Oc3ccncc3)cc2)cc2c(NCc3c(C)cc(C)[nH]c3=O)nccc12)C1CCC(N(C)C)CC1` (centres unmarked) [Compound Z-83] the figure was 244 nM; with `CCN(c1cc(-c2cnc(N3CCN(C)CC3)nc2)cc2c(NCc3c(C)cc(C)[nH]c3=O)nccc12)C1CCN(C(C)C)CC1` [Compound Z-67], 70 nM; with `CCN(c1cc(Cl)cc2c(NCc3c(C)cc(C)[nH]c3=O)nccc12)C1CCN(C(=O)CC#N)CC1` [Compound Z-175], 182 nM. On to `CCN(c1cc(Cl)cc2c(NCc3c(C)cc(C)[nH]c3=O)nccc12)C1CCN(C(=O)CO)CC1` [Compound Z-176], for which the IC50 in assay [1] (setting [2]) came out at 139 nM. Still for that read-out and setting: with `CCN(c1cc(-c2ccc(C(=O)N3CCOCC3)nc2)cc2c(NCc3c(C)cc(C)[nH]c3=O)nccc12)C1CCN(C(C)C)CC1` [Compound Z-123] the figure was 75 nM. On the same count and under the same terms, with `CCN(c1cc(-c2cnc(N3CCN(C)CC3)nc2)cc2c(NCc3c(C)cc(C)[nH]c3=O)nccc12)C1CCC(C)(O)CC1` (centres unmarked) [Compound Z-221, 3-((5-(ethyl(4-hydroxy-4-methylcyclohexyl)amino)-7-(2-(4-methylpiperazin-1-yl)pyrimidin-5-yl)isoquinolin-1-ylamino)methyl)-4,6-dimethyl pyridin-2(1H)-one] the figure was 194 nM; with `CCN(c1cc(C(C)C)cc2c(NCc3c(C)cc(C)[nH]c3=O)nccc12)[C@H]1CC[C@H](N(C)C)CC1` [Compound Z-214], 373 nM; with `CCN(c1cc(N2CCN(C3CCOCC3)CC2)cc2c(NCc3c(C)cc(C)[nH]c3=O)nccc12)C1CCC(N(C)C)CC1` (centres unmarked) [Compound Z-189], 307 nM. As to `CCN(c1cc(-c2ccc(CN3CCOCC3)cc2)cc2c(NCc3c(C)cc(C)[nH]c3=O)nccc12)C1CCC(NC(C)=O)CC1` (centres unmarked) [Compound Z-33], the IC50 in assay [1] (setting [2]) is 145 nM. Turning to `CCN(c1cc(-c2ccc(N3CCN(C)CC3)nc2)cc2c(NCc3c(C)cc(C)[nH]c3=O)nccc12)C1CCN(C(C)=O)CC1` [Compound Z-57], the IC50 in assay [1] (setting [2]) was 86 nM.

For the molecule `CCN(c1cc(Oc2ccccc2)cc2c(NCc3c(C)cc(C)[nH]c3=O)nccc12)[C@H]1CC[C@H](N(C)C)CC1` [Compound Z-190], the IC50 in assay [1] (setting [2]) amounted to 472 nM. Still for that read-out and setting: with `CCN(c1cc(C(=O)Nc2ccccn2)cc2c(NCc3c(C)cc(C)[nH]c3=O)nccc12)C1CCOCC1` [Compound Z-164] the figure was 371 nM; with `CCN(c1cc(-c2ccc(N3CCOCC3)nc2)cc2c(NCc3c(C)cc(C)[nH]c3=O)nccc12)C1CCOCC1` [Compound Z-28], 341 nM.
